The subject of one data set is BRCA1 protein levels. Description: siRNA efficacy validation by Western blotting. The note with it: minimum 48 hr exposure to 100 nM siRNA. In kind it is cell-based. For orientation: In western blotting, separated proteins are transferred to a membrane and probed.
Data set [1] relates to progesterone receptor (PR) activity in T47D cells. Kind of data set: MMTV-Luc reporter assay for PR activity in T47D cells. It is filed as cell-based, human. As to conditions: R5020 10 nM. On the procedure: FIG. 10 depicts that the inhibition of ER activity by these six compounds is not to due to non-specific cytotoxicity, since cell viability remained over 80% after a 24-hr exposure to 1 μM of each of the compounds (A). One of the compounds was tested for its ability to inhibit progestin-stimulated progesterone receptor (PR) activity in a PR+ human breast cancer cell line (T47D), using the MMTV-Luc reporter as a readout for PR activity (B). Here, PR activity was stimulated over 20-fold by the synthetic progestin R5020 (10 nM), but compound 4631-P/1 had no effect on PR activity at either 1 μM or 20 μM.
Progesterone receptor (PR) transcriptional activity assays were carried out in T47D cells using the synthetic progestin R5020 (10 nM) to activate PR and the MMTV-Luc reporter as a readout for PR activity.
Subconfluent proliferating MCF-7 cells were treated with vehicle (DMSO) or with the a sensitizing compound for 24 hours and then assayed for cell viability using MTT dye reduction assays. […] Subconfluent proliferating T47D cells were also transfected overnight with a progesterone-responsive reporter (MMTV-Luc) and then exposed to a synthetic progestin (R5020, 10 nM) for 24 hours in the absence or presence of compound 4631 P/1, as indicated.
(In general: In a reporter assay the amount or activity of a reporter protein is the signal.)

Data set [2] deals with ER activity in MCF-7 cells. Description: ERE-TK-Luc reporter assay in MCF-7 cells. In kind it is cell-based, human. The source says:
(§1) FIG. 8 depicts BRCA1 over-expression partially restores Tamoxifen sensitivity to anti-estrogen-resistant LCC9 cells. The effect of BRCA1 over-expression (by transfection of a wild-type (wt) full-length BRCA1 expression vector) was studied in E2-insensitive anti-estrogen resistant LCC9 human breast cancer cells with E2-sensitive/anti-estrogen sensitive MCF-7 breast cancer cells. The wtBRCA1 suppressed the constitutive ER activity (measured using the ERE-TK-Luc reporter as a readout), but Tam (5 μM) by itself had no effect on ER activity (A and B (left)). […] When MCF-7 cells were tested in the absence of E2, ER activity was very low under most conditions (illustrating the requirement for E2 to activate ER), but in the absence of E2, Tam functioned as an ER agonist and caused about a (5-6)-fold increase in ER activity (P<0.001).
FIG. 9 depicts the inhibition of E2-stimulated ER activity in MCF-7 cells by six compounds.
Subconfluent cells in 24-well dishes were transfected overnight with 0.25 μg of each indicated vector plus the ERE-TK-Luc reporter in serum-free DMEM containing Lipofectamine2000 (Life Technologies). The total transfected DNA was kept constant by addition of the appropriate control vector. […]

Data set [3] relates to ER activity in LCC9 cells. Kind of data set: ERE-TK-Luc reporter assay in LCC9 cells. It is filed as cell-based, human. The note with it: Tam 5 μM, wtBRCA1 expression vector transfected. On the procedure:
FIG. 3 depicts the inhibition of ER activity in anti-estrogen resistant LCC9 cells. LCC9 cells in 24-well dishes were transfected overnight with the ERE-TK-Luc reporter plasmid (0.25 μg per well), washed, and allowed to recover for several hours in fresh culture medium. The cells were then treated with the indicated concentrations of the six bioactive compounds or vehicle only (DMSO) for 24 hr and assayed for luciferase activity. Luciferase activity is expressed as a percentage of the DMSO control. Values are means±SEMs of four replicate wells.
as §1, with “(P<0.001). […]” for “(P<0.001).”

Data set [4] has as its system cathepsin D (E2/ER-regulated gene) in MCF-7 cells. Description: cathepsin D protein expression in MCF-7 cells. It is filed as cell-based, human. The note with it: 24-hr exposure to E2 (10 nM). As for the experimental part:
FIG. 7 depicts the ability of compounds 4631-P/1 and 35466-L/1 to inhibit the expression of an ER-regulated gene. Cathepsin D was used as a prototype E2/ER-regulated gene.
For Western blotting, after the indicated treatment(s), cells were harvested, and whole-cell lysates were prepared using RIPA buffer (Santa Cruz). Equal aliquots of whole-cell protein (either 100 μg unprecipitated whole-cell lysate or one half of the precipitated protein from 500 μg whole-cell lysate) were electrophoresed on 4-12% SDS-polyacrylamide gradient gels, transferred to nitrocellulose membranes (Millipore, Bedford, Mass.), and blotted using primary antibodies directed against BRCA1 (C-20, rabbit polyclonal, 1:200 dilution; Santa Cruz), ER (F10, mouse monoclonal, sc-8002, 1:500; Santa Cruz), and actin (goat polyclonal, catalog item sc-1615, 1:400; Santa Cruz). The membranes were then blotted with the appropriate secondary antibodies (1:1000; Santa Cruz), and the blotted proteins were visualized using an electrochemiluminescence (ECL) detection system (Amersham Biosciences), with colored markers (Bio-Rad Laboratories, Hercules, Calif.) as molecular size standards.

Description for BRCA1 protein levels: (catalog number: 43924220, Ambion/Life Technologies; and negative control-siRNA (catalog number: AM4461, Ambion). The efficacy of the ER-siRNA was validated by Western blotting. For siRNA treatments, subconfluent cells were treated with ER-specific or control siRNAs (final concentration of 100 nM) using siPORT Amine transfection reagent (Ambion), according to the manufacturer's instructions.

In the case of “ER-siRNA: ER-α small interfering RNA, Ambion catalog number 43924220 (sense CAGGCACAUGAGUAACAAATT; antisense UUUGUUACUCAUGUGCCUGAT; chemistry not given here)”, in the data set on BRCA1 protein levels, the “reduction of the BRCA1 protein levels” value is listed as > 75%. Consider `CCC(=O)[C@@]1(C)CC[C@H]2[C@@H]3CCC4=CC(=O)CCC4=C3CC[C@@]21C` [R5020], for which, in data set [1], the “stimulation of PR activity” value is on record as “over 20 fold”. Consider `CC/C(=C(\c1ccccc1)c1ccc(OCCN(C)C)cc1)c1ccccc1` [Tam, Tamoxifen], for which, in data set [2] (absence of E2, P<0.001), the “increase in ER activity in the absence of E2” value was 5-6 fold. Further, the “E2-stimulated ER activity in MCF-7 cells (ERE-TK-Luc)” value in data set [2] (with E2) is on record as “strongly suppressed”. The “constitutive ER activity in LCC9 cells (ERE-TK-Luc)” value in data set [3] is “no effect”. On to `C[C@]12CC[C@@H]3c4ccc(O)cc4CC[C@H]3[C@@H]1CC[C@@H]2O` [E2, 17β-estradiol], for which, in data set [4], the “cathepsin D protein levels after E2” value is reported as “increased significantly”.

These data come from patent US9603844B2, “Compositions and methods for treating mammary tumors” (GEORGETOWN UNIVERSITY, priority 2012, dated 2017).
